Measured values: patent publication US20200239530A1, “COMPOUNDS AND METHODS OF MODULATING PROTEIN DEGRADATION” (Vividion Therapeutics, Inc., priority 2017, published 2020)

Biological target: T1, HERC5 E3 ISG15--protein ligase HERC5 (Homo sapiens, UniProt Q9UII4)
T1 construct: Cells were resuspended in cold PBS on ice and sonicated with a probe sonicator to achieve lysis; endogenous in cells
T1 sequence (Q9UII4 1-1024): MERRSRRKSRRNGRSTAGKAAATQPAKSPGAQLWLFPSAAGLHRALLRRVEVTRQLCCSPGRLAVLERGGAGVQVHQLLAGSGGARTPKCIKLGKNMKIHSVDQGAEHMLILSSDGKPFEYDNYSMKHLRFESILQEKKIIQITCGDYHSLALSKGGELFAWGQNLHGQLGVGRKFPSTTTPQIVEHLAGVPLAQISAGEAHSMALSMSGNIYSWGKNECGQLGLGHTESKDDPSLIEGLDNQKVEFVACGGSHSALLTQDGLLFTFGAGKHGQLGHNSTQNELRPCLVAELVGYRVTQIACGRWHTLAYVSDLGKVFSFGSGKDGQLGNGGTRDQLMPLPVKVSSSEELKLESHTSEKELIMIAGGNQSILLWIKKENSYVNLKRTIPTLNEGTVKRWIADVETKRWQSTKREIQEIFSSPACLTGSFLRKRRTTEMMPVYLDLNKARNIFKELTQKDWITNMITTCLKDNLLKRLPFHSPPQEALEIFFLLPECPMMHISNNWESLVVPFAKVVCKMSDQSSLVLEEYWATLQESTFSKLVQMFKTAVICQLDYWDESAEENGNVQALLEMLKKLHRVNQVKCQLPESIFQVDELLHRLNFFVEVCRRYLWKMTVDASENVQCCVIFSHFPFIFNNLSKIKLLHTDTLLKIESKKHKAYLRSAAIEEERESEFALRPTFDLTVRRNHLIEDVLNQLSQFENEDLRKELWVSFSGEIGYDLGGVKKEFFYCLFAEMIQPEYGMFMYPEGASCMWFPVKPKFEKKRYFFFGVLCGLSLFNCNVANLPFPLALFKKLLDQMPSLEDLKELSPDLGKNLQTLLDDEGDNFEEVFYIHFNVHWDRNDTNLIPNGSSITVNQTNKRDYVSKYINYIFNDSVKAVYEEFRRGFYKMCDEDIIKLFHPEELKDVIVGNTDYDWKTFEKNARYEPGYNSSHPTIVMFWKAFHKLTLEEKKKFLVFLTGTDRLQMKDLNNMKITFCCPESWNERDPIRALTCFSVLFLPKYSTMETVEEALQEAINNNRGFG
Assay: Cysteine liganding, probe competition
Type: binding
Conditions: for Liganded: HERC5 Res# 994, uniprot Q9UII4
In short: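 Lysates from probe-sonicated cells in PBS (5 mg/ml proteome) were exposed to compound for 1 hr at 25° C, then labelled with desthiobiotin iodoacetamide probe (10 mM stock) for 1 hr at 25° C. Probe-tagged peptides were streptavidin-enriched after trypsin digestion.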

Row | SMILES | Liganded | 100 Max (uniprot Q9UII4) | 100 ave (uniprot Q9UII4) | 500 Max (uniprot Q9UII4) | 500 ave (uniprot Q9UII4)
1 | COc1ccc2c(c1)CCCN2C(=O)CCl [KB02] | YES | – | – | – | –
2 | O=C(CCl)Nc1cc(C(F)(F)F)cc(C(F)(F)F)c1 [KBO3] | YES | 83.4 | 83.4 | 96.8 | 96.8
